Measurements reported in patent US20080095826A1, “Method of Increasing Peripheral Blood Lymphocytes” (priority 2006, published 2008).
“And” between values parts separate entries of the source, which are not always exact repeats. Equal entries are not always repeated.

Experiments:
Assay type in all cases: in vivo, human
[1] = tested on: Hospitalized elderly test subjects; experiment: Rice gruel with monosodium glutamate monohydrate fed to hospitalized elderly for 2 months; blood indices, eating ratio; conditions: Friedman test, p<0.05, FIG. 1
Method: Monosodium glutamate monohydrate was added to rice gruel to 0.5 wt %.
Hospitalized elderly test subjects (n=11 (2 males, 9 females), average age of 85.8±8.2, average body weight of 39.7±5.7 kg), were fed the above-mentioned rice gruel with glutamic acid 3 times a day for 2 months, establishing a continuous administration of 0.8 g on average of monosodium glutamate monohydrate per meal.
From 1 month before the start of administration to 2 months after the start of administration, the eating ratio (ratio of weight of food actually eaten to weight of provided food) was measured. Blood samples were collected early in the morning immediately before the start of administration, 1 month after the start of adminstration, 2 months after the start of administration, and 1 month after the completion of administration, and the blood indices were measured. In addition, the body weight was measured.

[2] = tested on: Hospitalized elderly test subjects; experiment: Assessment of general condition by a nurse or care assistant (Table 2)
Method: (§1) In the test of Example 1, the test subject was assessed by a nurse or a care assistant for the improvement of the general condition between immediately before the start of the administration of the rice gruel containing a salt of glutamic acid e and 2 months thereafter. The test subjects took the Hasegawa Dementia Scale-Revised for the following 9 items immediately before the administration and 2 months thereafter.

[3] = tested on: Hospitalized elderly test subjects; experiment: Hasegawa Dementia Scale-Revised; conditions: before vs 2 months after intake; particularly for the items relating to speech; FIG. 3
Method: as §1
2. what year, what month, what date, what day of the week?
5. continue to subtract 7 from 100
6. say numbers in reverse order
7. read out from memory of item 4
9. say name of vegetables.

[4] = of 11 test subjects, before vs 2 months after start of administration

SMILES: N[C@@H](CCC(=O)O)C(=O)[O-].O.[Na+] [monosodium glutamate monohydrate, Monosodium glutamate monohydrate]
- peripheral lymphocyte count ([1]; 1 month after completion of administration compared to during administration): significantly decreased
- peripheral lymphocyte count ([1]; during 2 months of administration, 0.8 g per meal 3 times a day): increased significantly
- mind and body conditions such as speech recovery, expression of emotion ([2]; almost all test subjects, 2 months after start of administration): tendency toward improvement
- Brighter facial expression: number of test subjects marked ◯ [2, 4]: 8
- Clearer articulation: number of test subjects marked ◯ [2, 4]: 7
- Eating by tightly holding a spoon: number of test subjects marked ◯ [2, 4]: 2
- Establishment of conversation: number of test subjects marked ◯ [2, 4]: 4
- Eyes can be opened wide: number of test subjects marked ◯ [2, 4]: 6
- Louder voice: number of test subjects marked ◯ [2, 4]: 4
- Outward facial expression (delight, anger, sorrow and pleasure): number of test subjects marked ◯ [2, 4]: 6
- Recognition of meal: number of test subjects marked ◯ [2, 4]: 3
- Recovery of memory: number of test subjects marked ◯ [2, 4]: 2
- Use of voice: number of test subjects marked ◯ [2, 4]: 4
- 1 point for ◯, total points (scale of one to ten) ([2]; one value per individual test subject (No. 6598, 7012, 7020, 6342, 6990, 5039, 7082, 7142, 6957, 5742, 6362), 2 months, monohydrate): 7 points and 3 points (5×) and 10 points and 2 points (2×) and 6 points and 4 points
- Hasegawa Dementia Scale-Revised grade points [3]: grade points increased
